Measured values taken from PubChem BioAssay AID179 (DTP/NCI, 2004).
Active and inactive are the calls of the source.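 Rule for the calls: active = compounds giving half or more protection of infected cells from virus-caused growth loss, again on retest; inactive = the rest.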 Where a SMILES comes first, the peptide text is derived from it.

Tested on: CEM cells HIV-1 protection, formazan growth assay
Assay: NCI AIDS Antiviral Assay
Conditions: for IC50: measured here: growth of uninfected CEM cells
Summary of the method: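 CEM (human) cells, HIV-1 infected vs uninfected, 5-point dosing, formazan growth read-out. Retest threshold 50% protection.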

For `CC(C)=CC(=O)C1c2cccc(O)c2C(=O)c2c(O)cc(C)cc21` (centres undefined), the EC50 was over 30.9 µM and the IC50 was 10.2 µM.
For `O=c1[nH]c(=O)n(C2CC(O)C(CO)O2)cc1Oc1ccccc1` (centres undefined), the EC50 was over 200 µM and the IC50 was over 200 µM.
In the case of `Cc1cccc(NC(=O)C(=O)C(C(=O)c2ccccc2F)C2OC(=O)c3ccccc32)c1Cl` (centres undefined), the EC50 is reported as over 204 µM and the IC50 is reported as 12 µM.
With `CC1(C)CC(=O)C2=C(C1)Nn1c(nnc1C(F)(F)F)S2` the EC50 was over 813 µM and the IC50 was 355 µM.
For `CCOc1cc2c(cc1O)C=C[C@@H]1[C@@H]2CC[C@]2(C)[C@@H](O)CC[C@@H]12`, the EC50 was over 2 µM and the IC50 was 0.589 µM.
For `Oc1ccc(-c2nc(-c3ccccc3)c(-c3ccccc3)[nH]2)cc1`, the EC50 was over 200 µM and the IC50 was 26.9 µM.
With `CCOC(=O)NC(Nc1ccc(S(=O)(=O)Nc2ncccn2)cc1)(C(=O)OCC)C(F)(F)F` (centres undefined) the EC50 was over 200 µM and the IC50 was over 200 µM.
Molecule `O=c1c(OC2OC(CO)C(O)C(O)C2OC2OCC(O)(CO)C2O)c(-c2ccc(O)cc2)oc2cc(O)cc(O)c12` (centres undefined) has an EC50 of over 42.7 µM and an IC50 of over 42.7 µM.
`COC(=O)c1cc2c(cc1CC(Cc1ccc3c(c1)CCC3)C(=O)OC)CCC2` (centres undefined) gave an EC50 of over 200 µM and an IC50 of 126 µM.
`Cc1ncc2c(c1O)COC2=O` gave an EC50 of over 1510 µM and an IC50 of over 1510 µM.
For `O=C(/C(=C/c1ccc(O)cc1)c1ccccc1)c1ccccc1`, the EC50 was over 120 µM and the IC50 was 36.3 µM.
With `COC(=O)C(Cc1ccccc1)NC(=O)Cn1ccnc1[N+](=O)[O-]` (centres undefined) the EC50 was over 759 µM and the IC50 was 132 µM.
`Cc1cn2cc(-c3ccncc3)nc2s1` was tested, and the EC50 was over 209 µM and the IC50 was 112 µM.
For `CSC1=C(C#N)C(=O)N(c2ccc(Cl)cc2)C(=O)C1C#N` (centres undefined), the EC50 was over 200 µM and the IC50 was 135 µM.
`Cc1ccc2c(c1)C(=O)/C(=N/Nc1ccc(Cl)cc1)CCO2` showed an EC50 of over 200 µM and an IC50 of 110 µM.
With `Cc1ccc(S(=O)(=O)OC2C3OC(C)(C)OC3OC2C(c2cc(O)c3c(c2O)C(=O)c2ccccc2C3=O)c2cc(O)c3c(c2O)C(=O)c2ccccc2C3=O)cc1` (centres undefined) the EC50 was over 200 µM and the IC50 was over 200 µM.
Work on `OCc1ccc[n+](CCc2c[nH]c3ccccc23)c1` yielded an EC50 of over 759 µM and an IC50 of 316 µM.
With `N[C@@H]1c2c(I)sc(I)c2C(=O)[C@@H]1O` the EC50 was over 200 µM and the IC50 was 5.25 µM.
For `O=C(O)CN1CCN(CC(=O)O)CCN(CC(=O)O)CCN(CC(=O)O)CC1`, the EC50 was over 200 µM and the IC50 was over 200 µM.
Work on `CCOC(=O)CC1=NC(C)(C)CC(C)O1` (centres undefined) yielded an EC50 of over 200 µM and an IC50 of over 200 µM.
`COc1ccc2c(c1)[n+]([O-])c(/C(C)=N/NC(N)=S)c(C)[n+]2[O-]` was tested, and the EC50 was over 209 µM and the IC50 was 102 µM.
`CN=S(=O)(c1ccccc1)c1ccccc1` was tested, and the EC50 was 56.2 µM and the IC50 was over 200 µM.
With `O=C(NCCN(CCNC(=O)c1cccc(=O)n1O)CCNC(=O)c1cccc(=O)n1O)c1cccc(=O)n1O` the EC50 was over 200 µM and the IC50 was over 200 µM.
In the case of `C=CCN(CC=C)CC(C(C)=O)C(c1ccccc1)c1c(O)c2ccccc2oc1=O` (centres undefined), the EC50 is reported as over 1.15 µM and the IC50 is reported as over 1.15 µM.
Molecule `Cc1[nH]n(-c2nc(O)c(C)c(=O)[nH]2)c(=O)c1CCO` has an EC50 of over 200 µM and an IC50 of over 200 µM.
`CC12CCC(=O)CC13CCC2OC(O)C3` (centres undefined) was tested, and the outcome was “inactive”.
With `COC(=O)C1=C(C(=O)OC)NC2=C(C=N1)CCC2` the EC50 was over 380 µM and the IC50 was over 380 µM.
`CC1(C)N=C(N)N=C(N)N1c1ccc(Cl)c(Cl)c1` gave an EC50 of over 0.01 µM and an IC50 of 0.00427 µM.
In the case of `COC(OC)(c1ccccc1)C(I)I`, the outcome is reported as “inactive”.
Work on `CCOC(=O)C1(C)CC12CCCCC2` (centres undefined) yielded an EC50 of over 200 µM and an IC50 of over 200 µM.
`O=C1c2ccccc2N2OC3(N4CCCC4)CCCCC3C12c1ccccc1` (centres undefined) showed an EC50 of over 10 µM and an IC50 of over 10 µM.
`CCCCN1C(=O)C(NC(C)=O)C1COC(C)(C)C` (centres undefined) showed an EC50 of over 479 µM and an IC50 of over 479 µM.
With `C[C@]12CC[C@H]3[C@@H](C[C@@H](O)[C@]45C[C@@H]4CC[C@]35C)[C@@H]1CC[C@@]21C=CC(=O)O1` the EC50 was over 200 µM and the IC50 was 95.5 µM.
For `Cc1ccc(C2=C(c3ccc(C)cc3)C(c3ccc(C)cc3)=C(c3ccc(C)cc3)C2=O)cc1`, the EC50 was over 16.2 µM and the IC50 was over 16.2 µM.
Molecule `CN=CN(C)c1c2ccccc2nc2ccccc12` has an EC50 of over 200 µM and an IC50 of over 200 µM.
In the case of `CCOc1ccccc1N1C(=O)C(=O)C(c2nc3ccccc3o2)/C(=N\N)C1=O` (centres undefined), the outcome is reported as “inactive”.
For `CCc1oc2ccc(OC)c3c2c1C=CC=C3`, the outcome was “inactive”.
`CCC(C)C(NC(=O)C(N)CCCCN)C(=O)NC(CCC(N)=O)C(=O)NC(CO)C(=O)NC(C(=O)O)C(C)O` (centres undefined) (H-KIQST-OH; configuration not given here) showed an EC50 of over 115 µM and an IC50 of over 115 µM.
`Cc1c(O)ccc2c(O)c(NC(=O)c3ccc4c(c3)CCC(C)(C)O4)c(=O)oc12` showed an EC50 of over 200 µM and an IC50 of 83.2 µM.
`COc1ccc(C(=O)/C=C/c2ccncc2)cc1OC` showed an EC50 of over 200 µM and an IC50 of 3.02 µM.
`CCP(=O)(OC)C1=CCN(C(=O)OCC[Si](C)(C)C)CC1` (centres undefined) was tested, and the EC50 was over 200 µM and the IC50 was over 200 µM.
`O=c1[nH]nc(-c2ccccc2)n1-c1cccc([N+](=O)[O-])c1` showed an EC50 of over 200 µM and an IC50 of over 200 µM.
`C=CC(C)NC(=S)NNC(=S)NC` (centres undefined) showed an EC50 of over 200 µM and an IC50 of 89.1 µM.
With `C/C=C/CC(C)[C@@H](O)[C@H](NC)C(=O)O` (some centres undefined) the outcome was “inactive”.
`COC1=C(C)C(=O)c2nc(Cl)cc(C)c2C1=O` was tested, and the outcome was “inactive”.
